EP0714884A1, “A method for the production of a basic amino acid” (Ajinomoto Co., Inc., priority 1994, dated 1996)

Test: Filterability evaluation: time period required for filtration through a membrane filter
Format: physicochemical
Details: for filterability: neutral to acidic pH, result in words; for Filtration period of aqueous solution: L-arginine 5g/dl, 30°C, 1.4 ℓ, 2 x 10⁵ Pa, Millipore 0.22 µmGS membrane filter
Description: The dried purified crystals were obtained by the three method described above were filtered under the condition shown below to compare the filterability. The pH was adjusted with 2N aqueous solution of HCl, and the filterability was evaluated by determining the time period required for the filtration.
The dried purified crystals obtained by the method described above were filtered under conditions similar to those in Example 1 to evaluate the filterability.

| SMILES | filterability | Filtration period of aqueous solution (pH 3) | Filtration period of aqueous solution (pH 5) [s] | Filtration period of aqueous solution (pH 7) [s] | Filtration period of aqueous solution (pH 11) [s] |
| --- | --- | --- | --- | --- | --- |
| N=C(N)NCCC[C@H](N)C(=O)O [UF method, L-arginine] | extremely poor filterability | Occlusion | 2640 | 1400 | 850 |
| N=C(N)NCCC[C@H](N)C(=O)O [LR-O method, L-arginine] | no deterioration of the filterability | 920 s | 880 | 910 | 930 |
| N=C(N)NCCC[C@H](N)C(=O)O [Solution of purified crystals by LR-O method] [L-arginine] |  | 914 s | 920 | 918 | 921 |
| N=C(N)NCCC[C@H](N)C(=O)O [Conventional method, L-arginine] | extremely poor filterability | Occlusion | 8000 | 1510 | 1010 |
